Results on one compound are retold here after ChEMBL document CHEMBL1137934, “Inhibition of monoamine oxidases by coumarin-3-acyl derivatives: biological activity and computational study” (Bioorg Med Chem Lett, 2004).

The target of test [1] is Amine oxidase [flavin-containing] B (Bos taurus) (UniProt P56560).
In test [2] the target is Amine oxidase [flavin-containing] A (Bos taurus) (UniProt P21398).

Each structure is given as a SMILES string. pIC50: −log10 of the molar value.

Sequence of Amine oxidase [flavin-containing] B (Bos taurus) (P56560 whole entry, looked up): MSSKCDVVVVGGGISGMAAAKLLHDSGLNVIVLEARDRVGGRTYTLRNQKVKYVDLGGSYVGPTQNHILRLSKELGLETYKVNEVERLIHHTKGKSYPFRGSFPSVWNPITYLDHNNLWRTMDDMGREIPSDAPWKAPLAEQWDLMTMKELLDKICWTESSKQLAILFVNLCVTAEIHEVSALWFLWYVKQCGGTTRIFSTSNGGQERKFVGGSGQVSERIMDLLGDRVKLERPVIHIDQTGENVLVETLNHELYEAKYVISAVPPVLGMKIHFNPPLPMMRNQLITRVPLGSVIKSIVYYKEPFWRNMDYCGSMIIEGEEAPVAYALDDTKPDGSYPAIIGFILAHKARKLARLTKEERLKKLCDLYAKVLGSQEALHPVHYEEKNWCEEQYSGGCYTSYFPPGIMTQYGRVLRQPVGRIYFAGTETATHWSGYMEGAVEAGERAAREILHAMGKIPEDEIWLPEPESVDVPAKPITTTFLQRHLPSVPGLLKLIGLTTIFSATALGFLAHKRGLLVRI

The pIC50 is −log10 of the IC50, conventionally taken in molar units. Lower therefore signals a high IC50. `CCOC(=O)C1=Cc2cc(Cl)ccc2CC1=O`: the pIC50 in test [1] is 6.00; in test [2], 6.30.
